Assays:
[1] = Half life in rat at 10 mg/kg, po administered as single dose; format: ADME, organism-based; set-up: dose 10 mg/kg, route oral; settings: in vivo
[2] = Cmax in rat at 10 mg/kg, po after 2 hrs administered as single dose; format: ADME, organism-based; set-up: dose 10 mg/kg, route oral; settings: in vivo

half-life [1]: 1.78 h
Cmax [2]: 167 ng/mL
SMILES: COc1ccc(-c2cc3nccn3c(Nc3ncccc3C(N)=O)n2)cc1OC
